Key:
PAN02 tumors [1] = assay: Orthotopic PAN02 PDAC in lean and obese C57BL/6 mice (5-FU, losartan, TAN depletion, IL-1β inhibition); assay type: in vivo, mouse; conditions: for gene and protein expression of activated PSC marker αSMA: losartan 90 mg/Kg i.p. every day
Description: (§1) Wild-type (WT) C57BL/6 and FVB male mice were originally obtained from Jackson Laboratory (The Jackson Laboratory, Bar Harbor, Me.) and bred and maintained in our defined-flora colony. KPC (Ptfl-Cre/LSL-KRAS^G12D/p53-R172H) and iKRAS (p48-Cre;R26-rtTa-IRES-EGFP;TetO-Kras^G12D mice) mice were obtained. To generate an obese model, mice (6-week old) were given either 10% or a 60% fat diet (D12450J and D12492, Research Diets, New Brunswick, N.J.) for 10 weeks (or until tumor collection in spontaneous models), as previously described (Surwit, R. S., et al. Metabolism: clinical and experimental 44, 645-651 (1995)). For implanted tumor experiments, AK4.4 cells (KrasG12D and p53 ? /−) were isolated from mice generating spontaneous pancreatic tumors (Ptf1-Cre/LSL-Kras^G12D/p53Lox/ ? ) (Bardeesy, N., et al. Proc Natl Acad SciUSA103, 5947-5952 (2006)). Orthotopic pancreatic tumors were generated by implanting a small piece (1 mm^3) of viable tumor tissue (from a source tumor in a separate animal) into the pancreas of a 6-8 week-old male lean or obese FVB (AK4.4 model) or C57BL/6 (PAN02 model) mouse. PAN02 tumor chunks and AK4.4 cells were authenticated by IDEXX laboratories. (PAN02: IDEXX RADIL Case # 22366-2013. AK4.4: IDEXX RADIL Case #27818-2014). For AT1- and AT2-knockout studies, tumors were implanted into the pancreas of a 6-8-week-old male lean or obese C57BL/ 6, agtr1 a−/− or agtr2−/− mice.
(§2) For all experiments unless specified below, mice bearing orthotropic PAN02 or AK4.4 pancreatic tumors were randomized into treatment groups (or no treatment) and tumors were collected at day 21 after implantation. For tumor growth study with chemotherapy, mice were divided into treatment groups 7 days after implantation, and treated with either 5-FU (30 mg/Kg i.v. every 4 days) or an equal volume of saline by intravenous injection on days 7, 11 and 15 after implantation, with tumors collected at day 19. For tumor growth study with losartan, mice were treated with losartan (90 mg/Kg i.p. every day) or an equal volume of PBS intraperitoneally starting on day 5 after implantation and for the duration of the study. In the combined experiment of losartan and 5-FU, the same protocol was used for each drug as described above. TAN depletion by a Ly6G specific inhibitor (BioExcell, 4 mg/Kg i.p. every 2 days) was administered to PAN02 bearing animals starting at day 1 or day 7, and to AK4.4 bearing animals at day 7. IL-1β inhibition (MM425B, Endogen/Pierce Biotechnology, 2 mg/Kg i.p. every 2 days) was administered to PAN02 bearing animals starting at day 7. At the completion of the study, adipose tissue and tumor samples were collected, weighed, and processed for further analysis. When spontaneous models were used, tumors were collected when palpable.
(§3) Angiotensin inhibitor losartan was obtained as pills, crushed and dissolved in PBS over 24 h. The solution was then sterile filtered for injection. Doxorubicin and 5-FU were obtained as solutions for injection. All drugs were purchased from the pharmacy at Massachusetts General
(§4) To assess obesity-induced ECM remodeling and fibrosis fibrillar collagen accumulation was quantified using second harmonic generation imaging, and collagen-I content, hyaluronan, MMPs levels and fibrosis related signaling pathways (e.g. AT-I, CTGF, TSP1, TGFβ1, and P38/ERK signaling) were measured by rtPCR array, immunohistochemistry and immunoblotting. The topographical distribution and density of cancer-associated fibroblasts (CAFs) in tumor sections was detected by staining for αSMA activated fibroblast marker. Vessel morphology and perfusion was assessed using standard histological analyses.

AK4.4 tumors = assay: Orthotopic AK4.4 PDAC in lean and obese FVB mice (5-FU, losartan, TAN depletion); assay type: in vivo, mouse; conditions: for response to chemotherapy: losartan with 5-FU
Description: as §1, §2, §3, §4

PAN02 tumors [2] = assay: Delivery of chemotherapy to tumors in lean and obese mice; conditions: 5-FU 30 mg/kg, 30 min prior to tumor removal, HPLC
breast cancer = assay: Breast cancer patients treated with bevacizumab in the neoadjuvant setting; assay type: in vivo, human; conditions: normal weight patients
[3] = lean mice, 3 doses of 5-FU 30 mg/kg BW q4d
[4] = obese conditions, 5-FU 30 mg/kg q4d
[5] = obese mice, losartan monotherapy
[6] = tumors from lean mice, losartan
[7] = tumors from obese but not lean mice, losartan
[8] = tumors from obese mice, losartan

With O=c1[nH]cc(F)c(=O)[nH]1 [5-FU, 5-fluorouracil] as the compound, how does the “reduction in tumor weight as compared to untreated controls” value (PAN02 tumors [1]; [3]) read?
The value was 50%.

What about the tumor weight (PAN02 tumors [1]; [4]) of the same compound?
The tumor weight was “did not significantly reduce tumor weight”.

And the “reduction in tumor weight as compared to untreated controls” value (AK4.4 tumors; [3])?
The value was 50%.

And the tumor weight (AK4.4 tumors; [4])?
The tumor weight was “did not significantly reduce tumor weight”.

What about the “delivery of 5-FU to tumors in obese mice versus lean” value (PAN02 tumors [2]) of the same compound?
The value was “decreased”.

Which results are given for CCCCc1nc(Cl)c(CO)n1Cc1ccc(-c2ccccc2-c2nn[nH]n2)cc1 [losartan]?
gene and protein expression of activated PSC marker αSMA (PAN02 tumors [1]; lean animals): only mildly; response to chemotherapy (PAN02 tumors [1]; obese animals, losartan with 5-FU): improved response to chemotherapy; cytokine expression in tumors (multiplex protein) (PAN02 tumors [1]; obese mice, losartan): reduced the expression of multiple cytokines including IL-1β; tumor weight (PAN02 tumors [1]; [5]): reduced tumor weight; gene and protein expression of collagen-I and fibrillar collagen (PAN02 tumors [1]; [6]): not lean mice; gene and protein expression of activated PSC marker αSMA (PAN02 tumors [1]; tumors from obese animals): reduce gene and protein expression; chemotherapy delivery (PAN02 tumors [1]; [7]): increase chemotherapy delivery; tumor perfusion (PAN02 tumors [1]; [7]): tended to improve perfusion; gene and protein expression of collagen-I and fibrillar collagen (PAN02 tumors [1]; [8]): decrease in gene and protein expression of collagen-I as well as fibrillar collagen; desmoplasia-related markers and AT1 downstream signaling (AK4.4 tumors; lean animals, losartan): only modest; gene and protein expression of activated PSC marker αSMA (AK4.4 tumors; lean animals, losartan): only mildly; response to chemotherapy (AK4.4 tumors; lean setting): improved response to chemotherapy; enrichment for GR(+)F480(-) cells within the CD45 population (AK4.4 tumors; losartan treatment): tended to decrease the enrichment; enrichment for T regulatory cells within CD4 cells (AK4.4 tumors; losartan treatment): tended to decrease; cytokine expression in tumors (multiplex protein) (AK4.4 tumors; obese mice, losartan): reduced the expression of multiple cytokines including IL-1β; desmoplasia-related markers (AT1, TGF-β, SMAD2, vimentin, E-cadherin, snail, MMP9, decorin) and AT1 downstream signaling (AK4.4 tumors; obese mice, losartan): normalized the obesity-induced abnormal expression; tumor weight (AK4.4 tumors; [5]): reduced tumor weight; response to chemotherapy (AK4.4 tumors; obese setting): higher magnitude; gene and protein expression of collagen-I and fibrillar collagen (AK4.4 tumors; [6]): not lean mice; gene and protein expression of activated PSC marker αSMA (AK4.4 tumors; tumors from obese animals, losartan 90 mg/Kg i.p. every day): reduce gene and protein expression; chemotherapy delivery (AK4.4 tumors; [7]): increase chemotherapy delivery; tumor perfusion (AK4.4 tumors; [7]): tended to improve perfusion; gene and protein expression of collagen-I and fibrillar collagen (AK4.4 tumors; [8]): decrease in gene and protein expression of collagen-I as well as fibrillar collagen

What does the source list for bevacizumab: antibody against VEGF?
tumor hypoxia (breast cancer): acutely increases tumor hypoxia; tumor vessels (breast cancer): reduces tumor vessels

From patent publication US20180064662A1 (THE GENERAL HOSPITAL CORPORATION, priority 2015, published 2018)
